Results from patent publication US20260008775A1, “AZOLE MODULATORS OF CHOLESTEROL BIOSYNTHESIS AND THEIR USE FOR PROMOTING REMYELINATION” (GENENTECH, INC., priority 2022, published 2026).

What was measured:
[1] = target: human emopamil binding protein and human 7-dehydrocholesterol reductase (hEBP-DHCR7) (Homo sapiens (Human), UniProt Q15125); test: hEBP-DHCR7 radioligand binding assay (filter binding, membranes of co-expressing HEK293 cells); settings: competition with [3H] radioligand, 8 doses 0.06 to 5000 nM, Ki calculated from IC50
Method in brief: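 Compound, either single dose 1 μM or eight 5-fold dilutions from 0.06 to 5000 nM, competed with a [3H]-labelled ligand added at 25 nM for binding to co-expressing HEK293 membranes. IC50 came from nonlinear regression, with full block and DMSO as controls, then Cheng–Prusoff conversion to Ki.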

[2] = test system: zymostenol accumulation (EBP) in EpiSC-derived OPCs; test: GC/MS-based sterol profiling, zymostenol accumulation in EpiSC-derived OPCs; format: cell-based, mouse; settings: Mus musculus, 24 h, EpiSC-derived OPCs, 24 hr, 8 doses from 0.15 nM to 333 nM; read-out: Mouse Zymostenol GCMS EC50
Method in brief: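 Zymostenol level is expressed relative to that after 24 h with 100 nM positive-control reference, measured by full-scan GC/MS (m/z 458) with cholesterol-d7 internal standard after BSTFA derivatisation. Cells were EpiSC-derived OPCs, 100,000/well in N2B27 without growth factors, treated 24 h, from two or more independent platings.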

[3] = test system: EpiSC-derived OPCs; test: In vitro phenotypic screening of OPCs, MBP high-content imaging (percentage of oligodendrocytes); format: cell-based, mouse; settings: Mus musculus, 72 h, 3 days, MBP stain, dose-response 0.5 nM to 1000 nM; read-out: OPC EC50
Method in brief: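 EC50 was fitted by Hill equation to the MBP-positive oligodendrocyte percentage from imaging of fixed, MBP- and DAPI-stained cells. Treatment lasted 3 days at 37 °C, final doses 0.5–1000 nM over 8 points, in growth factor-free N2B27. Cells were EpiSC-derived OPCs, tested in at least two independent platings.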

Chain of human emopamil binding protein and human 7-dehydrocholesterol reductase (hEBP-DHCR7) (Q15125 whole entry): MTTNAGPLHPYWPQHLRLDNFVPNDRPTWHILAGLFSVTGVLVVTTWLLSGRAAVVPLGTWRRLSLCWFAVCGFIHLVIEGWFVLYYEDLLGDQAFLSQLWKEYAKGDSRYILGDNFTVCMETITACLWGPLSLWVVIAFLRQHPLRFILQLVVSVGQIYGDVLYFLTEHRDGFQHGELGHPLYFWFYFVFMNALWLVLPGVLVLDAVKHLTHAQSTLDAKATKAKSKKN

Ki [1] [nM]	EC50 [2] [nM]	EC50 [3] [nM]	Compound
135	26.3	158	CCn1nc(-c2ccc(C(F)(F)F)nc2)nc1[C@H]1CC[C@@H](N2CCCOCC2)CC1 [7*, 4-((1s,4s)-4-(1-ethyl-3-(6-(trifluoromethyl)pyridin-3-yl)-1H-1,2,4-triazol-5-yl)cyclohexyl)-1,4-oxazepane]
8.04	2.66	8.52	CC(C)n1nc(-c2cccc(C#N)c2)cc1[C@H]1[C@@H]2C[C@H](N3CCCOCC3)C[C@@H]21 [Compound 191*, 3-(5-((1R,3r,5S,6r)-3-(1,4-Oxazepan-4-yl)bicyclo[3.1.0]hexan-6-yl)-1-isopropyl-1H-pyrazol-3-yl)benzonitrile]
10.1	7	12.4	CC(C)n1nc(-c2ccc(C(F)(F)F)cc2)cc1[C@H]1[C@@H]2C[C@H](N3CCCOCC3)C[C@@H]21 [Compound 181*, 4-((1R,3r,5S,6r)-6-(1-Isopropyl-3-(4-(trifluoromethyl)phenyl)-1H-pyrazol-5-yl)bicyclo[3.1.0]hexan-3-yl)-1,4-oxazepane]
15.5	4.16	9.82	CC(C)n1nc(-c2cncc(Cl)c2)cc1[C@H]1[C@@H]2C[C@@H](N3CCCOCC3)C[C@@H]21 [Compound 177*, 4-((1R,3s,5S,6r)-6-(3-(5-Chloropyridin-3-yl)-1-isopropyl-1H-pyrazol-5-yl)bicyclo[3.1.0]hexan-3-yl)-1,4-oxazepane]
8.76	6.43	0.65	CC(C)n1nc(-c2cccc(C(F)(F)F)c2)nc1[C@H]1[C@@H]2C[C@H](N3CCOC[C@H]3C)C[C@@H]21 (single isomer, unassigned) [70*]
10.6	8.6	13.1	CC(C)n1nc(-c2ccc(F)cc2)cc1[C@H]1[C@@H]2C[C@H](N3CCCOCC3)C[C@@H]21 [Compound 183*, 4-((1R,3r,5S,6r)-6-(3-(4-Fluorophenyl)-1-isopropyl-1H-pyrazol-5-yl)bicyclo[3.1.0]hexan-3-yl)-1,4-oxazepane]
30.2	7.6	6.2	CC(C)n1nc(-c2ccc(C(F)(F)F)nc2)nc1[C@H]1CC[C@@H](N2CCO[C@H](CF)C2)C1 (single isomer, unassigned) [Compound 169]
33	18	98	CC(C)n1nc(-c2cncc(C(F)(F)F)c2)cc1[C@H]1[C@@H]2C[C@H](N3C[C@H]4C[C@@H]3CO4)C[C@@H]21 (single isomer, unassigned) [37*]
838	371	838	CC(C)n1nc(-c2cncc(C(F)(F)F)c2)nc1[C@H]1[C@@H]2C[C@@H](N3CCO[C@H](C)C3)C[C@@H]21 [Compound 162, (R)-4-((1R,3s,5S,6R)-6-(1-Isopropyl-3-(5-(trifluoromethyl)pyridin-3-yl)-1H-1,2,4-triazol-5-yl)bicyclo[3.1.0]hexan-3-yl)-2-methylmorpholine]
119	146	417	CC(C)n1nc(-c2cncc(OC(F)F)c2)nc1[C@H]1[C@@H]2C[C@@H](N3CCCOCC3)C[C@@H]21 [Compound 68, 4-((1R,3s,5S,6r)-6-(3-(5-(Difluoromethoxy)pyridin-3-yl)-1-isopropyl-1H-1,2,4-triazol-5-yl)bicyclo[3.1.0]hexan-3-yl)-1,4-oxazepane]
13.4	4	8.27	CC(C)n1nc(-c2ccnc(C(F)(F)F)c2)cc1[C@H]1[C@@H]2C[C@H](N3CCOCC3)C[C@@H]21 [Compound 172, 4-((1R,3r,5S,6r)-6-(1-Isopropyl-3-(2-(trifluoromethyl)pyridin-4-yl)-1H-pyrazol-5-yl)bicyclo[3.1.0]hexan-3-yl)morpholine]
164	44	285	CC[C@@H]1CN([C@@H]2CC[C@H](c3nc(-c4cnc(C(F)(F)F)nc4)nn3C(C)C)C2)CCO1 (single isomer, unassigned) [Compound 109*]
18.4	7.28	11.6	CC(C)n1nc(-c2ccc(C(F)(F)F)nc2)cc1[C@H]1[C@@H]2C[C@H](N3CCCOCC3)C[C@@H]21 [Compound 48, 4-((1R,3S,5S,6R)-6-(1-Isopropyl-3-(6-(trifluoromethyl)pyridin-3-yl)-1H-pyrazol-5-yl)bicyclo[3.1.0]hexan-3-yl)-1,4-oxazepane]
69.1	21.9	102	CC(C)n1nc(-c2cncc(C(F)(F)F)c2)cc1[C@@H]1CC[C@H](N2CCOCC2)C1 (single isomer, unassigned) [61*]
22.6	2.86	7.75	CC(C)n1nc(-c2cncc(C(F)(F)F)c2)cc1[C@H]1[C@@H]2C[C@H](N3CCO[C@@H](C)C3)C[C@@H]21 (single isomer, unassigned) [41*]
32.2	11.5	93.2	CC(C)n1nc(-c2cncc(C(F)(F)F)c2)nc1[C@H]1CC[C@@H](N2CCOCC2)C1 (single isomer, unassigned) [Compound 118*]
34.5	52	354	CC(C)n1nc(-c2cccc(C(F)(F)F)n2)cc1[C@H]1[C@@H]2C[C@H](N3CCOCC3)C[C@@H]21 [Compound 32, 4-((1R,3r,5S,6r)-6-(1-isopropyl-3-(6-(trifluoromethyl)pyridin-2-yl)-1H-pyrazol-5-yl)bicyclo[3.1.0]hexan-3-yl)morpholine]
14.4	3.49	21.8	CC(C)n1nc(-c2cncc(C(F)(F)F)c2)cc1[C@H]1CC[C@H](N2CCCOCC2)C1 (single isomer, unassigned) [63*]
10.9	0.952	26.4	CC(C)n1nc(-c2ccc(C#N)cc2)cc1[C@H]1[C@@H]2C[C@H](N3CCCOCC3)C[C@@H]21 [Compound 179*, 4-(5-((1R,3r,5S,6r)-3-(1,4-Oxazepan-4-yl)bicyclo[3.1.0]hexan-6-yl)-1-isopropyl-1H-pyrazol-3-yl)benzonitrile]
38.9	20.9	80.6	CC(C)n1nc(-c2cncc(C(F)(F)F)c2)cc1[C@H]1CC[C@@H](N2CCOCC2)CC1 [1*, 4-((1s,4s)-4-(1-isopropyl-3-(5-(trifluoromethyl)pyridin-3-yl)-1H-pyrazol-5-yl)cyclohexyl)morpholine]
6.87	2.98	5.33	CC(C)n1nc(-c2cccc(C(F)(F)F)c2)cc1[C@H]1[C@@H]2C[C@H](N3CCOCC3)C[C@@H]21 [Compound 170, 4-((1R,3r,5S,6r)-6-(1-Isopropyl-3-(3-(trifluoromethyl)phenyl)-1H-pyrazol-5-yl)bicyclo[3.1.0]hexan-3-yl)morpholine]
7.81	4	22.3	CC(C)n1nc(-c2ccc(C(F)(F)F)cc2)cc1[C@H]1[C@@H]2C[C@H](N3CCOCC3)C[C@@H]21 [Compound 173, 4-((1R,3r,5S,6r)-6-(1-Isopropyl-3-(4-(trifluoromethyl)phenyl)-1H-pyrazol-5-yl)bicyclo[3.1.0]hexan-3-yl)morpholine]
34.5	52	354	CC(C)n1nc(-c2cncc(C(F)(F)F)c2)cc1[C@H]1[C@@H]2C[C@H](N3CCOC(C)(C)C3)C[C@@H]21 [Compound 34, 4-((1R,3r,5S,6r)-6-(1-isopropyl-3-(5-(trifluoromethyl)pyridin-3-yl)-1H-pyrazol-5-yl)bicyclo[3.1.0]hexan-3-yl)-2,2-dimethylmorpholine]
9.63	10.9	25.1	CC(C)n1nc(-c2cccc(OC(F)(F)F)c2)cc1[C@H]1[C@@H]2C[C@@H](N3CCCOCC3)C[C@@H]21 [Compound 190*, 4-((1R,3s,5S,6r)-6-(1-isopropyl-3-(3-(trifluoromethoxy)phenyl)-1H-pyrazol-5-yl)bicyclo[3.1.0]hexan-3-yl)-1,4-oxazepane]
14.7	8	25.7	CC(C)n1nc(-c2ccc(C(F)(F)F)c(F)c2)nc1[C@@H]1CC[C@@H](N2CCOCC2)C1 (single isomer, unassigned) [Compound 114*]
20.3	7.75	37.3	CC(C)n1nc(-c2cncc(F)c2)cc1[C@H]1[C@@H]2C[C@H](N3CCCOCC3)C[C@@H]21 [Compound 187*, 4-((1R,3r,5S,6r)-6-(3-(5-Fluoropyridin-3-yl)-1-isopropyl-1H-pyrazol-5-yl)bicyclo[3.1.0]hexan-3-yl)-1,4-oxazepane]
33.3	20.3	136	CC(C)n1nc(-c2cnc(C(F)(F)F)nc2)nc1[C@H]1CC[C@@H](N2CCOCC2)C1 [Compound 95, 4-((1R,3S)-3-(1-Isopropyl-3-(2-(trifluoromethyl)pyrimidin-5-yl)-1H-1,2,4-triazol-5-yl)cyclopentyl)morpholine]
134	19.7	108	FC(F)(F)c1cccc(-c2nc([C@@H]3CC[C@@H](N4CCCOCC4)C3)n(C3CC3)n2)n1 (single isomer, unassigned) [11*]
